{
  "source": "patent US5202349A",
  "about": "“Substituted phenylacetylenes, pharmaceutical compositions containing these compounds and processes for the preparation of these compounds and compositions” (Gruenenthal GmbH, priority 1990, dated 1993)",
  "key": {"cyclooxygenase": {"biological_target": "T1, cyclooxygenase (Ovis aries, UniProt P05979)", "T1 construct": "suspension of sheep seminal vesicle microsomes; from tissue; host or cells: sheep seminal vesicle microsomes", "T1 sequence (P05979 25-600)": "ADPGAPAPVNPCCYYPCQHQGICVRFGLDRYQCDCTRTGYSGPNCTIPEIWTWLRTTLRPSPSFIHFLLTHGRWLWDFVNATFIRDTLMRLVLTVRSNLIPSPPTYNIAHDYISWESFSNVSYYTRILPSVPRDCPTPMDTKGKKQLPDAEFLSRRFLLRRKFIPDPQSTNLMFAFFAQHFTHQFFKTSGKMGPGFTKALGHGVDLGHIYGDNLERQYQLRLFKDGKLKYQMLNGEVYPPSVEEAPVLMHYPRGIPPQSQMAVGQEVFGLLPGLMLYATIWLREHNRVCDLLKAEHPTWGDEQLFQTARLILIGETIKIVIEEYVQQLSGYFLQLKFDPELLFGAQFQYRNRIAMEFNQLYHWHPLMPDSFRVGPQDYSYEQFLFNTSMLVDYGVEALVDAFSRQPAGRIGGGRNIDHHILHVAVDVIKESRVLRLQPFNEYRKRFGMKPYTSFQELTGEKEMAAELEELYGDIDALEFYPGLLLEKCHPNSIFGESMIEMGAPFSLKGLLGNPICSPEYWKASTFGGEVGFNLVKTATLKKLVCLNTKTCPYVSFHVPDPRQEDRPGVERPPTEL", "assay": "Inhibition of cyclooxygenase in sheep seminal vesicle microsomes ([14C]-arachidonic acid, TLC)", "format": "biochemical", "settings": "pH 7.0, read-out: IC50 for inhibition of cyclooxygenase (B)", "protocol": "The effect of the test compounds on the activity of cyclooxygenase was tested using a suspension of sheep seminal vesicle microsomes in 50 mM potassium phosphate buffer of pH 7.0 which was incubated with the solvent only (as control) or with the test compound and [^14 C]-arachidonic acid. The \"IC50 -values (B)\" (i.e. the concentration of the test compound which causes an 50%-inhibition of the cyclooxygenase) were determined by thin layer chromatography and by means of a TLC-Linear-Analyzer."}, "[1]": {"test_system": "endotoxin/galactosamine-induced hepatitis, increase of liver specific enzymes in the serum", "assay": "Endotoxin/galactosamine-induced hepatitis in mice (septic shock model)", "format": "in vivo", "settings": "10 mg/kg i.p. for each of five applications, 8 hours after endotoxin", "protocol": "As a test model to evaluate the effects of test compounds in septic shock the endotoxin/galactosamine-induced hepatitis in mice has been used. […] The intraperitoneal application of 5-lipoxygenase inhibitors 30 minutes before, simultaneously with and 2, 4 and 6 hours after the application of endotoxin inhibitis the hepatitis-induced increase of the serum activities of these enzymes. On administration of compounds of the formula I in doses of 10 mg/kg for each of the five applications the following percentual inhibitions of the increase of the enzymes GPT and SDH were achieved (the increase of enzymatic activities in control animals was set at 100%): […]"}, "5-lipoxygenase": {"biological_target": "T2, 5-lipoxygenase (Rattus norvegicus, UniProt P12527)", "T2 construct": "endogenous in cells; host or cells: rat basophilic leukemia cells", "T2 sequence (P12527 1-673)": "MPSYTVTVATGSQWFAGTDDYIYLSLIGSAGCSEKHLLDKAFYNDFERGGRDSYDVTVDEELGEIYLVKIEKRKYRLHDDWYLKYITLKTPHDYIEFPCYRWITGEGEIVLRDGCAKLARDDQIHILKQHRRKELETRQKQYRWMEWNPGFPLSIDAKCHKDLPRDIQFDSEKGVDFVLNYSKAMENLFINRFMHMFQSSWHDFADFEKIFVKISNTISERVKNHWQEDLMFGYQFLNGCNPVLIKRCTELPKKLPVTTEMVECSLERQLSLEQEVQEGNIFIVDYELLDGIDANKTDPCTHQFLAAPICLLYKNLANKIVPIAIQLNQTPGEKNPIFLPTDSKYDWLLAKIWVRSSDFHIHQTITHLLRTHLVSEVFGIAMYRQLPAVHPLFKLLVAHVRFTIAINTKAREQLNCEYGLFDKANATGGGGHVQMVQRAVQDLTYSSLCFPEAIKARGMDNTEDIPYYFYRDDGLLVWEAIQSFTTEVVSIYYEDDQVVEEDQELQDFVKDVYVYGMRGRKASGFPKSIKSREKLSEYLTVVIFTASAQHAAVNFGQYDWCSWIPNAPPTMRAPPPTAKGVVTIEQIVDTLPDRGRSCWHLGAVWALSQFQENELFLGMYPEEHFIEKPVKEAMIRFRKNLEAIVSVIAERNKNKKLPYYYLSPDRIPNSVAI", "assay": "Inhibition of 5-lipoxygenase in rat basophilic leukemia cells ([14C]-arachidonic acid, TLC)", "format": "cell-based", "settings": "for IC50: rat basophilic leukemia cells, standardized to nordihydroguaiaretic acid; for Quotient (IC50 cyclooxygenase (B) / 5-lipoxygenase (A)): selectivity", "protocol": "To 1 ml each of this suspension there was added indomethacin (10 μM) and calcium chlorid (2 mM) and then the mixture was incubated in presence or absence of a test compound for 3 minutes and thereafter with 20 μM of [^14 C]-arachidonic acid and 20 μM of the calcium ionophore A 23 187 for 10 minutes. The reaction was stopped by adding 20 μl of glacial acetic acid and then the mixture was extracted with ethyl acetate to isolate the metabolites of arachidonic acid formed by the enzymatic action of 5-lipoxygenase. These were separated by thin layer chromatography using a solvent mixture known to be suitable for leukotriene analysis [c.f. Jakschik et al., Biochem. Biophys. Res. Commun. 102, 624 (1981)]. The distribution of the radioactivity to the different metabolites was measured using a TLC Linear Analyzer. By bringing into relationship the percentages of the amount of the products formed under the action of 5-lipoxygenase (5-HETE, isomers of LTB4) in the controls (tests performed in absence of test compounds) and in the presence of test compounds of formula I in different concentrations the \"IC50 -value\" (i.e. the concentration of the test compound which causes an 50%-inhibition of the 5-lipoxygenase) is determined. For standardization these values then were brought into relationship to the IC50 -values determined in the same manner for the standard compound nordihydroguaiaretic acid."}, "[2]": {"test_system": "ex vivo iLTB4-formation (5-lipoxygenase activity) in whole blood of rats", "assay": "Inhibition of ex vivo iLTB4-formation in rat whole blood after oral administration", "parameters": "species or system male rats (Wistar strain)", "protocol": "The bioavailability of the compounds of formula I after oral administration was characterized by means of an ex vivo biochemical assessment method described by Tateson et al. in Brit. Pharmacol., 94, 528 (1988).\nCompounds of formula I were orally administered to male rats (Wistar strain). 1 hour later the rats were bled by heart puncture in letal CO2 -narcosis. The 5-lipoxygenase reaction was triggered by the addition of the calcium-ionophor A23187 to an end concentration of […] to aliquots of rat whole blood and subsequent incubation for 30 minutes at 37° C. in a water bath. At the end of the incubation the samples were centrifuged to collect the cell free plasma. The concentration of the immunoreactive LTB4 (iLTB4 ng/ml) in each plasma sample was determined by a LTB4 -radioimmunoassay (^3 H-LTB4 -RIA, Amersham) by means of a LTB4 -standard curve in diluted rat plasma. For calculation of the percent inhibition of ex vivo iLTB4 -formation in whole blood of rats treated with the compounds of formula I rats treated with appropiate vehicle solution were included in all experiments, aliquots of their blood were run in parallel and were processed in the same way as described. The mean iLTB4 -formation per ml plasma of these vehicle treated control rats served as 100 percent value of normal control 5-lipoxygenase activity. The percent inhibition of the ex vivo iLTB4 -formation after oral administration of compounds of formula I was calculated as follows: 100 minus 100 times the quotient of the mean iLTB4 concentration per ml plasma of the rats treated with compounds of formula I […] and the mean iLTB4 concentration per ml plasma of the control rats."}, "bronchoconstriction": {"test_system": "bronchoconstriction", "assay": "Antiasthmatic activity: ovalbumin-induced bronchoconstriction in passively sensitized guinea pigs (Konzett-Rössler)", "format": "in vivo", "settings": "100 mg/kg oral, 0.2 mg/kg i.v. ovalbumin challenge, 10 minutes", "protocol": "The antiasthmatic activity of compounds of formula I was tested in narcotised and ventilated guinea pigs. For the induction of an asthmatic reaction, the animals were passively sensitized by a single intraperitoneal injection of anti-ovalbumin serum. 48 hours afterwards the asthmatic reaction was elicited by intravenous challenge with 0.2 mg/kg ovalbumin. The immediately resulting bronchoconstriction was measured as increase in overflow according to the Konzett-Rbssler method for a period of 10 minutes. Effects caused by histamine, serotonin and sympathic counterreaction were eliminated by intravenous pretreatment with 2.15 mg/kg mepyramine, 46.4 μg/kg propranolol, 4.64 mg/kg atropin and 1 mg/kg methysergide, all given 5 minutes before challenge.\nAfter oral administration of the product of Example 5a or of the product of Example 9, in doses of 100 mg/kg each, the bronchoconstriction was inhibited by 54% or by 67%, respectively."}},
  "data": [
    {"smiles": "CC(=O)N(O)Cc1cccc(C#Cc2ccc3ccccc3c2)c1", "note": "[Example 1, N-[3-(Naphth-2-yl-ethynyl)-benzyl]-acetohydroxamic acid]", "values": [
      {"measurement": "IC50", "setting": "cyclooxygenase", "value": "> 500000", "unit": "nM"},
      {"measurement": "Inhibition of increase of GPT", "setting": "[1]", "value": 47, "unit": "%"},
      {"measurement": "Inhibition of increase of SDH", "setting": "[1]", "value": 58, "unit": "%"},
      {"measurement": "IC50", "setting": "5-lipoxygenase", "value": 670, "unit": "nM"},
      {"measurement": "Quotient (IC50 cyclooxygenase (B) / 5-lipoxygenase (A))", "setting": "5-lipoxygenase", "value": "> 746"}
    ]},
    {"smiles": "COc1ccc(C#Cc2cccc(C(C)N(O)C(C)=O)c2)cc1", "note": "(centres unmarked) [Example 5a]", "values": [
      {"measurement": "inhibition in vivo at 21.5 mg/kg", "setting": "[2]; Rattus norvegicus, 21.5 mg/kg oral, blood taken 1 hour later", "value": 75, "unit": "%"},
      {"measurement": "IC50", "setting": "cyclooxygenase", "value": 440000, "unit": "nM"},
      {"measurement": "inhibition of bronchoconstriction", "setting": "bronchoconstriction", "value": 54, "unit": "%"},
      {"measurement": "IC50", "setting": "5-lipoxygenase", "value": 290, "unit": "nM"},
      {"measurement": "Quotient (IC50 cyclooxygenase (B) / 5-lipoxygenase (A))", "setting": "5-lipoxygenase", "value": 1517}
    ]},
    {"smiles": "COc1ccc(C#Cc2cccc(C(C)N(O)C(N)=O)c2)cc1", "note": "(centres unmarked) [Example 9, N-Hydroxy-N-{1-[3-(4-methoxy-phenylethynyl)-phenyl]-ethyl}-urea]", "values": [
      {"measurement": "inhibition of the ex vivo iLTB4-formation", "setting": "[2]; 10 mg/kg oral", "value": 86, "unit": "%"},
      {"measurement": "IC50", "setting": "cyclooxygenase", "value": 100000, "unit": "nM"},
      {"measurement": "inhibition of bronchoconstriction", "setting": "bronchoconstriction", "value": 67, "unit": "%"},
      {"measurement": "Inhibition of increase of GPT", "setting": "[1]", "value": 94, "unit": "%"},
      {"measurement": "Inhibition of increase of SDH", "setting": "[1]", "value": 90, "unit": "%"},
      {"measurement": "IC50", "setting": "5-lipoxygenase", "value": 150, "unit": "nM"},
      {"measurement": "Quotient (IC50 cyclooxygenase (B) / 5-lipoxygenase (A))", "setting": "5-lipoxygenase", "value": 667}
    ]}
  ]
}
